Laboratory results taken from ChEMBL document CHEMBL2074372, “CHO/hPEPT1 cells overexpressing the human peptide transporter (hPEPT1) as an alternative in vitro model for peptidomimetic drugs” (J Pharm Sci, 1999).

Legend:
[1] = biological target: T1, Solute carrier family 15 member 1 (Homo sapiens, UniProt P46059); test: TP_TRANSPORTER: inhibition of Gly-Sar uptake (Gly-Sar: 20 uM) in PEPT1-expressing CHO cells; format: functional, cell-based
T1 sequence (P46059 whole entry): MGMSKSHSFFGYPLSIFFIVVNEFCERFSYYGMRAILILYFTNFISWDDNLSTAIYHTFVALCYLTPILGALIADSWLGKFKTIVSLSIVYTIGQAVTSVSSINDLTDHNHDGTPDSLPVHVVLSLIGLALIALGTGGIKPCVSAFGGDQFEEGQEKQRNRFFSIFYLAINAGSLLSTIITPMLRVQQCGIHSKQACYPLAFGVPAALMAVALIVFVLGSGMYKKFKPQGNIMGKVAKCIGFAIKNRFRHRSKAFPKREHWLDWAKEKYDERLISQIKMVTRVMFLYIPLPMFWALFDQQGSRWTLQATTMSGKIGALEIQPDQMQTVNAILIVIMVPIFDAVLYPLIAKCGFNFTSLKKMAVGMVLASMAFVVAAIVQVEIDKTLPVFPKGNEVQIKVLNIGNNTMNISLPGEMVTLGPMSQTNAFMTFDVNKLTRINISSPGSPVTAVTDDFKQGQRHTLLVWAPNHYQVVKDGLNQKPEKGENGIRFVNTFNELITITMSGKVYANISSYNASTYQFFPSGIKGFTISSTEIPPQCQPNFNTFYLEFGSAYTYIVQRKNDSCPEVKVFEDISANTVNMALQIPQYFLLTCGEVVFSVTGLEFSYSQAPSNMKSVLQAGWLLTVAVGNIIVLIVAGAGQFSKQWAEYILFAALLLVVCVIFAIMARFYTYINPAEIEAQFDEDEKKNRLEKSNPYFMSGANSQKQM

[2] = biological target: T2, Solute carrier family 15 member 1 (Homo sapiens) (UniProt P46059); test: TP_TRANSPORTER: uptake in PEPT1-expressing CHO cells; format: functional, cell-based
T2 sequence (whole entry): T1 sequence (P46059 whole entry)

SMILES	IC50 [1] [mM]	Activity [2]
CCOC(=O)[C@H](CCc1ccccc1)N[C@@H](C)C(=O)N1CCC[C@H]1C(=O)O	4.5	
N[C@@H](C(=O)N[C@@H]1C(=O)N2C(C(=O)O)=C(Cl)CS[C@H]12)c1ccccc1 [CEFACLOR ANHYDROUS]	8.2	substrate [+]
CC1=C(C(=O)O)N2C(=O)[C@@H](NC(=O)[C@H](N)C3=CCC=CC3)[C@H]2SC1 [CEPHRADINE]	15.3	substrate [+]
N[C@@H](Cc1ccc(O)c(O)c1)C(=O)O [LEVODOPA]	141	
C[C@](N)(Cc1ccc(O)c(O)c1)C(=O)O [METHYLDOPA]	152	
